Data: patent publication US8835134B2, “Cycloastragenol monoglucoside, preparation, pharmaceutical composition and application thereof” (Tianjin Institute of Pharmaceutical Research, priority 2007, dated 2014)

Test system: anesthetized open-chest dogs
Experiment: Hemodynamics of anesthetized open-chest dogs, intravenous infusion
Format: in vivo, mongrel dogs
Method: The animals were anesthetized by intravenous injection of 30 mg/kg sodium pentobarbital, tracheally intubated, and mechanically ventilated with positive air pressure. Left thoracotomy was performed through the fourth intercostal space and the heart was suspended in a pericardial cradle, the aortic root was isolated and a probe of blood flow meter (12 or 14 mm in diameter) was fixed to measure the aortic blood flow as a representation of cardiac output (CO), the circumflex branch of left coronary artery was isolated and a probe of blood flow meter (2 or 2.5 mm in diameter) was fixed to measure the coronary blood flow (CBF). A polyethylene catheter filled with heparin physiological saline was inserted through cardiac apex into the left ventricle to measure the left ventricular pressure (LVP) and left ventricular end-diastolic pressure (LVEDP), Peak positive and peak negative first derivatives of the LVP (+ LVdp/dt and − LVdp/dt) were calculated with the Acknowledge software. The systolic blood pressure (SBP), diastolic blood pressure (DBP) and mean arterial pressure (MAP) were measured by polyethylene catheter via the femoral artery, ECG □ was measured by a AC-601G ECG amplifier. The above-mentioned analog signal was input into a data acquisition workstation (MP100, BIOPAC Systems, USA) to a computer running Acknowledge (version 3.7.1).
After surgery, various indexes before administration were recorded until the indexes were stable, and then intravenous infusion administration was conducted. Thirty dogs were divided into five groups (six dogs in each group), the experiment groups were given 0.15, 0.3, 0.6 mg/kg of ASP-[…] respectively, the normal control group was given 1 ml/kg of solvent, and the positive control group was given 0.3 mg/kg of astragaloside IV. The delivery volumes were 15 ml for each dog was and the delivery velocity was 1 ml/min. The indexes were recorded at 5, 10, 15, 20, 30, 45, 60, 90 and 120 mins after drug administration. At the end of experiment, the hearts were excised and weighted. The myocardial blood flow for per hectogram (CF), coronary resistance (CR), cardiac index (CI), left ventricular work (LVW) and total peripheral resistance (TPR) were calculated according to the following formulae: CF=CBF×[…]/heart weight CR=MAP/CF CI=CO/0.11×(body weight)^2/3 LVW=CO×(MAP−5)×1.052×0.0136 TPR=MAP×79.92/CO
Data are expressed as mean±SD ( x±s), the paired t-test was used to compare the significance between before and after administration, the unpaired t-test was adopted for comparison between groups.

[1] = 0.15 mg/kg iv, 90 min after administration
[2] = 0.15 mg/kg iv, 120 min after administration
[3] = 0.15 mg/kg iv, before administration
[4] = 0.3 mg/kg iv, 5 min after administration
[5] = 0.3 mg/kg iv, 10 min after administration

## CC(C)(O)[C@@H]1CC[C@](C)([C@H]2[C@@H](O)C[C@@]3(C)C4C[C@H](OC5OC(CO)C(O)C(O)C5O)C5C(C)(C)[C@@H](O)CC[C@@]56C[C@@]46CC[C@]23C)O1 (stereo partly drawn) [CMG, Cycloastragenol-6-O-β-D-glucoside]
[1]
  CO change vs before administration: (−0.15 ± 0.24) L/min
  CR: 1.36 ± 0.37 mmHg/ml/min/100 g
  CR change vs before administration: (0.00 ± 0.24) mmHg/ml/min/100 g
  LVEDP: 1.4 ± 2.4 mmHg
  LVEDP change vs before administration: (−0.40 ± 0.43) mmHg
  LVP: 101 ± 18 mmHg
  LVP change vs before administration: (−3.5 ± 7.6) mmHg
  LVW: 0.96 ± 0.24 kg · m
  LVW change vs before administration: (−0.16 ± 0.34) kg · m
  TPR: 5576 ± 2153 dyn · s/cm^5
  TPR change vs before administration: (426 ± 770) dyn · s/cm^5
  dp/dt: 1121 ± 412 mmHg/s
  dp/dt change vs before administration: (−28 ± 90) mmHg/s
  −dp/dt: −857 ± 243 mmHg/s
  −dp/dt change vs before administration: (31 ± 128) mmHg/s
[2]
  CF: 56.5 ± 16.6 ml/min/100 g
  CF change vs before administration: (−1.2 ± 13.7) ml/min/100 g
  CI: 1.79 ± 0.37 L/min/m^2
  CI change vs before administration: (−0.29 ± 0.45) L/min/m^2
  CO: 1.03 ± 0.19 L/min
  CO change vs before administration: (−0.17 ± 0.28) L/min
  CR: 1.35 ± 0.44 mmHg/ml/min/100 g
  CR change vs before administration: (−0.01 ± 0.25) mmHg/ml/min/100 g
  LVEDP: 1.6 ± 2.3 mmHg
  LVEDP change vs before administration: (−0.15 ± 0.44) mmHg
  LVP: 103 ± 22 mmHg
  LVP change vs before administration: (−1.8 ± 8.1) mmHg
  LVW: 0.99 ± 0.36 kg · m
  LVW change vs before administration: (−0.13 ± 0.37) kg · m
  TPR: 5734 ± 1774 dyn · s/cm^5
  TPR change vs before administration: (584 ± 1030) dyn · s/cm^5
  dp/dt: 1138 ± 387 mmHg/s
  dp/dt change vs before administration: (−11 ± 92) mmHg/s
  −dp/dt: −897 ± 263 mmHg/s
  −dp/dt change vs before administration: (−9 ± 176) mmHg/s
[3]
  CF: 57.7 ± 24.1 ml/min/100 g
  CI: 2.08 ± 0.63 L/min/m^2
  CO: 1.21 ± 0.38 L/min
  CR: 1.35 ± 0.44 mmHg/ml/min/100 g
  LVEDP: 1.8 ± 2.2 mmHg
  LVP: 105 ± 22 mmHg
  LVW: 1.12 ± 0.42 kg · m
  TPR: 5150 ± 2321 dyn · s/cm^5
  dp/dt: 1150 ± 391 mmHg/s
  −dp/dt: −888 ± 310 mmHg/s
0.15 mg/kg iv, within 120 min
  ±LVdp/dtmax: no significant change
0.3 mg/kg iv
  LVEDP maximum decrease: 1.5±0.8 mmHg
[4]
  CF: 51.7 ± 20.7 ml/min/100 g
  CF change vs before administration: (1.5 ± 5.3) ml/min/100 g
  CI: 2.09 ± 0.86 L/min/m^2
  CI change vs before administration: (0.11 ± 0.16) L/min/m^2
  CO: 1.16 ± 0.39 L/min
  CO change vs before administration: (0.06 ± 0.09) L/min
  CR: 1.57 ± 0.74 mmHg/ml/min/100 g
  CR change vs before administration: (0.04 ± 0.17) mmHg/ml/min/100 g
  LVEDP: 1.3 ± 2.5 mmHg
  LVEDP change vs before administration: (−0.39 ± 0.38) mmHg
  LVP: 107 ± 21 mmHg
  LVP change vs before administration: (4.1 ± 4.9) mmHg
  LVW: 1.12 ± 0.49 kg · m
  LVW change vs before administration: (0.10 ± 0.07) kg · m
  TPR: 5248 ± 1878 dyn · s/cm^5
  TPR change vs before administration: (−52 ± 829) dyn · s/cm^5
  dp/dt: 1308 ± 448 mmHg/s
  dp/dt change vs before administration: (47 ± 34) mmHg/s
  −dp/dt: −958 ± 313 mmHg/s
  −dp/dt change vs before administration: (−37 ± 44) mmHg/s
[5]
  CF: 53.5 ± 21.1 ml/min/100 g
  CF change vs before administration: (3.3 ± 3.2) ml/min/100 g
  CI: 1.96 ± 0.85 L/min/m^2
  CI change vs before administration: (−0.03 ± 0.23) L/min/m^2
  CO: 1.09 ± 0.39 L/min
  CO change vs before administration: (−0.01 ± 0.14) L/min
